The results in this text go back to patent publication US20100239596A1, “GRP78 AND TUMOR ANGIOGENESIS” (UNIVERSITY OF SOUTHERN CALIFORNIA, priority 2007, published 2010).

Series [1] concerns TuBEC (tumor-associated brain endothelial cells). It counts as cell-based. The following applies: seven days; for TuBEC cell death, agent alone: TMZ 300 μM, CPT-11 100 μM, Eto 50 μM, EGCG 20 μM. On the procedure:
Cell death ELISA. EC were treated with etoposide (Calbiochem; La Jolla, Calif.), temozolomide (TMZ) (Schering-Plough; Kenilworth, N.J.), CPT-11 (Pharmacia; New York, N.Y.), the caspase inhibitor Q-VDOPH (Calbiochem), or EGCG (Sigma-Aldrich, St. Louis, Mo.), then assayed using the Cell Death Detection ELISA Plus kit (Roche Diagnostics; Indianapolis, Ind.) according to manufacturer's protocol. Percent death was calculated based on 100% positive cell death control.
Lentiviral construct. The sequences of siRNA, the isolation of human Grp78 cDNA and their subcloning into lentiviral constructs are previously described (Dong et al, Cancer Res., 65:5785-91, 2005). The sequences of the siRNA against human GRP78 are: siGRP78A: 5′-[…]-3′ (SEQ ID NO:1) and siGRP78B: 5′-[…]-3′ (SEQ ID NO:2). The sequences of the control siRNA are: sicontrol A: 5′-[…]-3′ (SEQ ID NO:3); sicontrol B: 5′-[…]-3′ (SEQ ID NO:4). For construction of lentivirus expressing GRP78, full length human GRP78 was prepared by reverse transcription of total HEK293T RNA followed by a 2-step PCR amplification and subcloning into the BamHI/XhoI sites of pcDNA3 (Invitrogen; Carlsbad, Calif.) to yield pcDNA3-hGRP78. Non-replicating lentiviral vectors co-expressing bicistronic human GRP78 and EGFP linked via the EMCV IRES were produced using the pLenti6/V5-D-TOPO and VIRAPOWER™ Lentivirus Expression system (Invitrogen, Carlsbad, Calif.). Initially, EGFP (Clonetech; Mountain View, Calif.) was inserted into the CMV driven expression cassette by TOPO cloning. […] The human GRP78 gene digested from pcDNA3-hGRP78 using XbaI and XhoI was ligated into pLenti6/EGFP between the CMV promoter and the EGFP gene. Next, an insert encoding the EMCV IRES, was generated by PCR from pIRES-EGFP (Clonetech) and subcloned into the XhoI/AgeI sites of pLenti6/huGRP78 EGFP. The IRES sequence was inserted between the human GRP78 gene and the EGFP allowing hGRP78 expression to be monitored by EGFP fluorescence. The manufacturer's manual was followed for TOPO cloning and production of viral particles. For infection, 10^4 cells were plated in 6-well dishes and infected with lentivirus at titers of 5×10^6 units/ml (TU/ml). Infected cells, monitored for GFP, were used when cultures were 100% GFP positive.
To test whether GRP78 confers drug resistance to TuBEC, TuBEC cultures were infected with lentivirus expressing siGRP78A and siCtr1A. Five days post infection, cultures were left untreated (media), or treated with CPT-11 [100 μM], etoposide (Eto) [50 μM] or temozolomide (MZ) [300 μM]. After treatment for seven days, the cells were analyzed for cytotoxicity.
To target GRP78 through a small molecule approach, TuBEC were incubated with EGCG alone or in combination with TMZ, CPT-11, and Eto. Cytotoxicity was measured after seven days (FIG. 3D).

For series [2] the test system is unchanged. Put plainly: MTT cell viability assay, TuBEC. It counts as cell-based, human. The note with it: 50 μM etoposide, 72 hours, vs DMSO vehicle. On the procedure: (§1) Cell Culture. Endothelial cells (EC) were isolated from normal human brain tissue or human glioma tissue as previously described (Charalambous et al, J. Neurosurg., 102:699-705, 2005; Charalambous et al, Exp Cell Res., 313:1192-202, 2007). All experiments were performed on subconfluent (60-80%) cultures, in passages 4 to 6 only.
(§2) MTT cell viability assay. Cells were plated in triplicate (3×10^3 cells/well; […]) into 96-well plates coated with 1% gelatin. The 3-(4,5-dimethylthiazol-2-yl)-2,5-diphenyltetrazolium bromide (MTT) assay was performed according to the manufacturer's instructions (Sigma-Aldrich, St. Louis, Mo.). Percent cell viability was calculated relative to vehicle-treated controls.
(§3) To compare the sensitivities of TuBEC and BEC to chemotherapeutic agents, cells were treated with the topoisomerase II inhibitor, etoposide [1-50 μM] or DMSO (vehicle) [0.1%] for 72 hours, and cytoxicity was assessed using the MTT assay, which was performed according to manufacturer's protocol (Sigma Aldrich; St. Louis, Mo.).

For series [3], the system named is BEC (normal human brain endothelial cells). Put plainly: MTT cell viability assay, BEC. It counts as cell-based. The note with it: 50 μM etoposide, 72 hours, vs DMSO vehicle. On the procedure:
as §1, §2, §3

As for `CCc1c2c(nc3ccc(OC(=O)N4CCC(N5CCCCC5)CC4)cc13)-c1cc3c(c(=O)n1C2)COC(=O)[C@]3(O)CC` [CPT-11], the “TuBEC cell death, agent alone” value in series [1] was “did not cause TuBEC cell death”.
Take `CC(C)[C@H](NC(=O)c1ccc2ccccc2n1)C(=O)N[C@@H](CC(=O)O)C(=O)COc1c(F)cccc1F` [Q-VDOPH]: the “effect of caspase inhibition on cell death induced by CPT-11, Eto or TMZ with reduced GRP78” value in series [1] (Q-VDOPH [10 mM], TuBEC infected with siGRP78B) is on record as “blocked cell death”.
With `COc1cc([C@@H]2c3cc4c(cc3[C@@H](O[C@@H]3O[C@@H]5CO[C@@H](C)O[C@H]5[C@H](O)[C@H]3O)[C@H]3COC(=O)[C@H]23)OCO4)cc(OC)c1O` [etoposide], in series [1], the “TuBEC cell death, agent alone” value is “did not cause TuBEC cell death”. For the same compound, in series [2], the “cell death of TuBEC (cytotoxicity, MTT assay)” value is recorded as “no significant cell death”. Also, the “BEC died (cytotoxicity, MTT assay)” value in series [3] is reported as “over 60%”.
Turning to (−)-epigallocatechin gallate [EGCG], the “cell death, EGCG in combination with CPT-11” value in series [1] (EGCG 20 μM + CPT-11 100 μM, p=0.005) turned out to be 46%. For the same compound, the “cell death, EGCG in combination with Eto” value in series [1] (EGCG 20 μM + Eto 50 μM, p=0.001) was found to be 49%. The “cell death, EGCG in combination with TMZ” value in series [1] (EGCG 20 μM + TMZ 300 μM, p=0.003) is given as 35%. In series [1], the “TuBEC cell death, agent alone” value is given as “did not cause TuBEC cell death”.
